Assays:
Ishikawa cells = test: Inhibitor study using MTT analysis on Ishikawa cells in the presence of PF; type: cell-based, human; details: 1% PF
Description: It was more than 1000 fold selective for EZH2 over other histone methyltransferases, including both SET-domain-containing and non-SET domain-containing methyltransferases, as shown schematically in FIG. 6A. […] In this regard, an inhibitor study using MTT analysis was conducted according to the schematic of FIG. 7A. Various doses of GSK126 were tested on Ishikawa cells in the presence of PF: 100 nM, 500 nM, 1 μM, 2.5 μM, 5 μM, and 10 μM in DMSO. Cell growth and viability of cells was evaluated rather than just EZH2 expression. (FIGS. 7B-7C) 1 mM and 0.1 mM solutions of GSK126 were also created from serial dilutions of 10 mM GSK126. […] It was somewhat unclear, however, whether that the effect of the drug as the volume of the vehicle (DMSO) could have impacted the results.
(§1) Cell treatment. Ishikawa cells (human endometrial cell line) or EOOF5 cells (primary endometrial cells from a patient without endometriosis, gift from Emory University) were cultured in T75 flasks in complete media (DMEM, 10% FCS, 1% P/S). Cells were treated with 1% PF (control and endo patients) in charcoal stripped media containing 0.1% FCS, for 48 hours. A subset of cells were also treated with GSK126 or EPZ-6438 (FIG. 15), at various concentrations for 24 hours. Cells were collected post-treatment for RNA (PCR) and protein analysis (Western blotting).

EZH2 expression = test: mRNA analysis on Ishikawa cells treated with PF and/or GSK 126; type: cell-based, human; details: depending on order of drug treatment, compared with control or endo PF alone
Description: as §1

EOOF5 cells = test: xCELLigence cell index of primary endometrial cells treated with PF and/or drug; type: cell-based, human; details: for cell growth (% CI), PF and drug compared to PF alone: EOOF5 cells; for cell growth (% CI), PF and drug compared to PF alone / cell viability and growth in the presence of PF: 1% PF; for cell viability and growth in the presence of PF: human endometrial cells
Description: as §1
xCELLigence. EOOF5 cells (primary endometrial cells) was plated at 10,000 cells per well using xCELLigence technology. Plates that have gold electrodes attached to the bottom were utilized. The electrodes produce electrons, which interact with the solution, completing a circuit. As the number of adhered cells in the plate increases, the more this interferes with circuit completion. Cells were treated with either 1% control or endo PF alone or treated with PF for 24 hours before being treated with either 1 μM GSK, 2.5 μM GSK, or 2.5 μM EPZ. Cells were also treated with drug alone. % Cell Impedance (CI) was calculated compared to CF media.

global trimethylation = details: reactivates silenced PRC2 genes; cited from earlier work

| Compound | cell viability (Ishikawa cells; 500 nM, vehicle (DMSO) volume could have impacted the results) | cell growth (proliferation) (Ishikawa cells; GSK126 100 nM-10 μM in DMSO) | EZH2 mRNA expression (EZH2 expression) | cell growth (% CI), drug added after PF pretreatment (EOOF5 cells; 1% PF first for 24 hours followed by drug for 48 hours) | cell growth (% CI), PF and drug compared to PF alone (EOOF5 cells) | % CI, drug first followed by PF (EOOF5 cells; GSK first for 24 hours, then 1% PF for another 48 hours) | cell viability and growth in the presence of PF (EOOF5 cells) | global H2K37 trimethylation levels (global trimethylation) |
| --- | --- | --- | --- | --- | --- | --- | --- | --- |
| CC[C@H](C)n1cc(C)c2c(C(=O)NCc3c(C)cc(C)[nH]c3=O)cc(-c3ccc(N4CCNCC4)nc3)cc21 [GSK 126] | dip in viability | very little proliferation | bidirectional effect | able to lower the cell growth induced by PF | decrease in cell growth | significant decrease in % CI | concentration dependent decrease | inhibit global H2K37 trimethylation levels |
| CCN(c1cc(-c2ccc(CN3CCOCC3)cc2)cc(C(=O)NCc2c(C)cc(C)[nH]c2=O)c1C)C1CCOCC1 [EPZ-6438] |  |  |  |  | decrease in cell growth |  | concentration dependent decrease |  |

Reference: patent US11906529B1, “Methods for treatment and diagnosis of endometriosis” (Marshall University Research Corporation, priority 2018, dated 2024)
